Measurements published in article PMC5424325, “Effect of health foods on cytochrome P450-mediated drug metabolism” (Journal of Pharmaceutical Health Care and Sciences, 2017).

Key:
[1] = target: T1, CYP2D6 (Homo sapiens, UniProt P10635); assay: Kinetic analysis of dextromethorphan O-demethylation in Ad-P450 cells; format: in vitro ADME
T1 construct: expressed in transfected cells; host or cells: HepG2 cells infected with Ad-CYP2D6 (0.05 MOI) together with the four other P450 adenoviruses
Protocol: (§1) The cells were seeded in a 48-well tissue culture plate (Becton Dickinson) at 5.0 × 10^4 cells/well. After 48 h, the cells were simultaneously infected with Ad-CYP1A2 at 5 multiplicity of infection (MOI), Ad-CYP2C9 at 1 MOI, Ad-CYP2C19 at 2 MOI, Ad-CYP2D6 at 0.05 MOI, and Ad-CYP3A4 at 10 MOI. […] After shaking, the mixtures were centrifuged at 2500 × g for 10 min and the supernatants were evaporated to dryness at 60 °C in a block incubator. The residues were dissolved in acetonitrile containing 0.1% acetic acid and the solutions were subjected to liquid chromatography/tandem mass spectrometry (LC-MS/MS) analysis.
(§2) The Prominence system (Shimadzu Corporation, Kyoto, Japan) equipped with LCMS-8040 system (Shimadzu Corporation) was used for LC-MS/MS analysis with an electrospray ionization interface. The ionization mode used was positive in the multiple reaction monitoring. The chromatographic separation was performed on Xterra MS C18 columns (2.1 mm × 100 mm, 5 μm) (Waters, Milford, MA, USA). The column oven temperature was maintained at 40 °C. The mobile phase consisted of acetonitrile containing 0.1% acetic acid and water containing 0.1% acetic acid (85:15) with a flow rate of 200 μL/min. […]
(§3) The Km, Vmax, and IC50 values were determined using Prism software (version 6.0; GraphPad Software Inc., San Diego, CA, USA).

[2] = target: T2, CYP2C9 (Homo sapiens, UniProt P11712); assay: Kinetic analysis of diclofenac 4′-hydroxylation in Ad-P450 cells; format: in vitro ADME
T2 construct: expressed in transfected cells; host or cells: HepG2 cells infected with Ad-CYP2C9 (1 MOI) together with the four other P450 adenoviruses
Protocol: The column oven temperature was maintained at 40 °C.

[3] = target: T3, CYP3A4 (Homo sapiens, UniProt P08684); assay: Kinetic analysis of midazolam 1′-hydroxylation in Ad-P450 cells; format: in vitro ADME
T3 construct: expressed in transfected cells; host or cells: HepG2 cells infected with Ad-CYP3A4 (10 MOI) together with the four other P450 adenoviruses
Protocol: as §1, §2, §3

[4] = target: T4, CYP2C19 (Homo sapiens, UniProt P33261); assay: Kinetic analysis of omeprazole 5-hydroxylation in Ad-P450 cells; format: in vitro ADME
T4 construct: expressed in transfected cells; host or cells: HepG2 cells infected with Ad-CYP2C19 (2 MOI) together with the four other P450 adenoviruses
Protocol: as §1, §2, §3

[5] = target: T5, CYP1A2 (Homo sapiens, UniProt P05177); details: Phenacetin O-deethylation, Ad-P450 cells, 5 h
T5 sequence (P05177 1-516): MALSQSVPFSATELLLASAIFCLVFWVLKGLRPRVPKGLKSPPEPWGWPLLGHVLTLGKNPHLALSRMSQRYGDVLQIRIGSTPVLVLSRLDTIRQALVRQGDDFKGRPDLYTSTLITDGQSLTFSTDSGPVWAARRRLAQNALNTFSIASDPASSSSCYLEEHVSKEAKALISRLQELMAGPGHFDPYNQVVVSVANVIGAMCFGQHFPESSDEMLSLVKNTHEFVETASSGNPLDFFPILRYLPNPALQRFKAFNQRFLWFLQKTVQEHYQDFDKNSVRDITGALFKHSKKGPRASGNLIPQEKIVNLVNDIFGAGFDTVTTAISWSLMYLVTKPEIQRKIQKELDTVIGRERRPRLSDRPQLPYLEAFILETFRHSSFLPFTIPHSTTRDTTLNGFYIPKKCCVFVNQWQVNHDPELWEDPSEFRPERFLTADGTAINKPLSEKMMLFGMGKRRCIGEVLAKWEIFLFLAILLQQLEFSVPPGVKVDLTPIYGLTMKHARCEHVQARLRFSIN
Protocol: as §1, §2, §3

[6] = system: CYP1A2; details: cited from earlier work
[7] = system: CYP3A4; details: cited from earlier work
[8] = system: CYP2C9; details: competitive inhibitor; cited from earlier work
[9] = target: T4, CYP2C19; assay: CYP2C19 inhibition (omeprazole 5-hydroxylation) in Ad-P450 cells, substrate cocktail; format: in vitro ADME; details: probe omeprazole (5-hydroxylation), read-out: Residual activity CYP2C19
[10] = target: T5, CYP1A2; assay: CYP1A2 inhibition (phenacetin O-deethylation) in Ad-P450 cells, substrate cocktail; format: in vitro ADME; design: expressed in transfected cells; host or cells: HepG2 cells infected with Ad-CYP1A2 (5 MOI) together with the four other P450 adenoviruses; details: probe phenacetin (O-deethylation), read-out: Residual activity CYP1A2
[11] = target: T3, CYP3A4; assay: CYP3A4 inhibition (midazolam 1′-hydroxylation) in Ad-P450 cells, substrate cocktail; format: in vitro ADME; details: probe midazolam (1′-hydroxylation), read-out: Residual activity CYP3A4
[12] = target: T1, CYP2D6; assay: CYP2D6 inhibition (dextromethorphan O-demethylation) in Ad-P450 cells, substrate cocktail; format: in vitro ADME; details: read-out: Residual activity CYP2D6

T4 sequence (P33261 whole entry): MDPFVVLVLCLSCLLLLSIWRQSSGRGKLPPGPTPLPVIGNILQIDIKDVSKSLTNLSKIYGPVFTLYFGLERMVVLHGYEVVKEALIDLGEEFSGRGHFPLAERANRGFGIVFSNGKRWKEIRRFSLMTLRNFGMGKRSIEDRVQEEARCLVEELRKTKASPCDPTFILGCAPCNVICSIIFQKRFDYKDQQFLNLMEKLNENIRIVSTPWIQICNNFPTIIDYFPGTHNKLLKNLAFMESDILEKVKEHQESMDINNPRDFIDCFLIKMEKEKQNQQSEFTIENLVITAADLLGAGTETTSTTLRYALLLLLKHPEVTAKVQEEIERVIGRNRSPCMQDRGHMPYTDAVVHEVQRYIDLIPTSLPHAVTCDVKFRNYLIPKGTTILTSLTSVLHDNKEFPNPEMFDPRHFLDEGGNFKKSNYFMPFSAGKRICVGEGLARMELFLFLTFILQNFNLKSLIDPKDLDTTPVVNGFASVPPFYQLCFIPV
T3 sequence (P08684 whole entry): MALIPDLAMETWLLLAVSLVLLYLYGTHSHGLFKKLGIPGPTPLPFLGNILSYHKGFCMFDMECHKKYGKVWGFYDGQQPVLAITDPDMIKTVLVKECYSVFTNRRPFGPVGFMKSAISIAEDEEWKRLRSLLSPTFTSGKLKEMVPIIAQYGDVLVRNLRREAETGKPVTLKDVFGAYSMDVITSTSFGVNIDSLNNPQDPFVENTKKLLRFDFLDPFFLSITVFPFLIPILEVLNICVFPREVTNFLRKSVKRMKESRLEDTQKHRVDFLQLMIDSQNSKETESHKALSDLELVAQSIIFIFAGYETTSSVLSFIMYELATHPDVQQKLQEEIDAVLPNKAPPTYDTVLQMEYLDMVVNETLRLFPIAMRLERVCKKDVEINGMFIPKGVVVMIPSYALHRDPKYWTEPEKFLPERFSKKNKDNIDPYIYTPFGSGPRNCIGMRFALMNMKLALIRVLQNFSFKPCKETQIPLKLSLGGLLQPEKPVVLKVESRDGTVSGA
T1 sequence (P10635 whole entry): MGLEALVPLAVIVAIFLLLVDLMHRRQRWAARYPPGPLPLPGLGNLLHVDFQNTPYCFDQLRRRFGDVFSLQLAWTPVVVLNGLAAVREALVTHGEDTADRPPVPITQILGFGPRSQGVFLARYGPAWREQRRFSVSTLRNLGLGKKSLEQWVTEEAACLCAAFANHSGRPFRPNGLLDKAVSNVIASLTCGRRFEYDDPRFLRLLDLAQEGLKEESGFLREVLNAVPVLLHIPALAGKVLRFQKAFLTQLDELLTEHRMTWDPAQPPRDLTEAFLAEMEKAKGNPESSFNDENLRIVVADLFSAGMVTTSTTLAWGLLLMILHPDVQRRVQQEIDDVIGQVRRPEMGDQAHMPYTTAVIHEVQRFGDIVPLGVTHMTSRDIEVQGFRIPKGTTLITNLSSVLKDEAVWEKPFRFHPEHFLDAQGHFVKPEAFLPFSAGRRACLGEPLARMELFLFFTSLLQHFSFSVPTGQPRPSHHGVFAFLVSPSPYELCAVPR
T2 sequence (P11712 whole entry): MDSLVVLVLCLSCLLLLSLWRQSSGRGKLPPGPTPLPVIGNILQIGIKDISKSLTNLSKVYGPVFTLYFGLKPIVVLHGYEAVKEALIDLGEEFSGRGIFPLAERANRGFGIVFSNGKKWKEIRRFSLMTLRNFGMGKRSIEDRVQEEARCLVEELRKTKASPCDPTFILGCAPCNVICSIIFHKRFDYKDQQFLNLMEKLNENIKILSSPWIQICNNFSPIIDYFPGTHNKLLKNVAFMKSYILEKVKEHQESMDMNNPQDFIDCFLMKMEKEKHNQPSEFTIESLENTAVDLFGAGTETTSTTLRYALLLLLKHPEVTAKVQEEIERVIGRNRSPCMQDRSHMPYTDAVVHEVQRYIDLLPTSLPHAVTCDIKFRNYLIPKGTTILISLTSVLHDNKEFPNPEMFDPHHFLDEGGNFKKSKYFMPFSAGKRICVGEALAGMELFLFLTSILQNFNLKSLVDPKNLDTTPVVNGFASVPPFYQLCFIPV

COc1ccc2c(c1)[C@]13CCCC[C@@H]1[C@H](C2)N(C)CC3 [Dextromethorphan]
Vmax ([1]; Dextromethorphan O-demethylation, Ad-P450 cells, 5 h): 1.10 pmol/well/hr | Km at 5 h ([1]; human): 17.1 µM

O=C(O)Cc1ccccc1Nc1c(Cl)cccc1Cl [Diclofenac]
Vmax ([2]; 5 h): 239.9 pmol/well/hr | Km at 5 h ([2]; human): 5.87 µM

Cc1ncc2n1-c1ccc(Cl)cc1C(c1ccccc1F)=NC2 [Midazolam]
Vmax ([3]; Midazolam 1′-hydroxylation, Ad-P450 cells, 5 h): 12.30 pmol/well/hr | Km at 5 h ([3]; human): 1 µM

COc1ccc2[nH]c([S+]([O-])Cc3ncc(C)c(OC)c3C)nc2c1 (stereo not shown) [Omeprazole]
Vmax ([4]; 5 h): 4.66 pmol/well/hr | Km at 5 h ([4]; human): 2.75 µM

CCOc1ccc(NC(C)=O)cc1 [Phenacetin]
Vmax [5]: 100.30 pmol/well/hr

c1cc2c(cc1[C@H]1OC[C@H]3[C@@H]1CO[C@@H]3c1ccc3c(c1)OCO3)OCO2 [Sesamin]
Ki [6]: 75 µM | Ki [7]: 4.2 µM | Ki [8]: 24 µM

COc1cc(/C=C/C(=O)CC(=O)/C=C/c2ccc(O)c(OC)c2)ccc1O [curcumin]
activity at 5 h, 50 μM [9]: 72.7% | activity at 5 h, 50 μM [10]: 58.3% | activity at 5 h, 50 μM [11]: 61.9% | activity at 5 h, 50 μM [12]: 71.9%
